Where a SMILES comes first, the peptide text is derived from it.
Legend:
Conditions in all cases: 10°C
[1] = target: T1, N-SH2 domain of PI3K, WT (Homo sapiens, UniProt P27986); assay: Stopped-flow binding kinetics, N-SH2 WT
T1 construct: made in house
Experimental: (§1) N-SH2 wild-type and all the site-directed variants were expressed and purified as described previously ([Visconti et al., 2019]). All the mutants were obtained using a QuickChange Lightning Site-Directed Mutagenesis kit (Agilent technologies), accordingly to manufacturer instructions. Peptides with sequence TNSEDNpYVPMNPG mimicking wild-type Gab2 and TNSEDNpYVPANPG mimicking the M457A variant of Gab2 were purchased from GenScript Biotech Corporation.
(§2) Binding kinetics experiments were performed using a single-mixing SX-18 stopped-flow instrument (Applied Photophysics); all binding experiments were conducted in 50 mM Hepes pH 7.4 300 mM NaCl at 10°C. Excitation was at 280 nm and emission was collected using a […] cut-off glass filter. Pseudo-first order binding experiments were performed mixing a constant concentration of dansylated Gab2_448–460 and Gab2_448–460 M457A (1 μM) vs. N-SH2 wt and its mutants at concentrations ranging from […]. For each N-SH2 concentration, usually 5 individual traces were averaged and in all cases the fluorescence time courses obtained was satisfactorily fitted by using a single exponential equation.
(§3) One of the aims of this study is to depict the molecular details of the interaction between the N-SH2 domain of PI3K and Gab2. A powerful strategy to achieve this goal relies on perturbing the system by producing conservative site-directed variants while monitoring the effect of mutations on the association and dissociation rate constants between the interacting partners (kon and koff respectively). Thus, we designed and successfully produced 21 site-directed variants of the N-SH2 domain and challenged them vs. a peptide mimicking the region of Gab2 ranging from residue 448–460 (Gab2_448–460), containing the pY-X-X-M motif that is specifically recognized by the N-SH2 domain ([Waksman et al., 1992]; [Songyang et al., 1993]). The choise of mutations was designed in analogy to phi-value analysis methodology in protein folding studies ([Fersht and Sato, 2004]). […] To monitor binding by fluorescence, a dansyl group was added at the N-terminus of the peptide. The binding reaction was monitored by stopped-flow experiments following the change in FRET signal, taking advantage of the two Trp residues on the N-SH2 domain in positions 12 and 14 as fluorescence donor and the dansyl group on Gab2_448–460 as acceptor. The experiments were performed in pseudo-first order conditions with Gab2_448–460 at fixed concentration of 1 μM rapidly mixed vs. large excess of N-SH2 wt and its variants, ranging from 4 to 14 μM, in buffer Hepes 50 mM, NaCl 300 mM, pH 7.4, at 10°C.
(§4) with kon being the slope of the line and koff the intercept with the y-axis. Since indirect calculation of koff obtained by extrapolation is associated with high experimental error, we performed displacement experiments to directly measure koff by challenging a pre-incubated complex of dansylated Gab2_448–460 and N-SH2 domain both at the concentration of 1 μM vs. a large excess of non-dansylated Gab2_448–460 (50 μM). Kinetic parameters extracted from data together with the calculated changes in activation and equilibrium free energies are reported in Table 1. Analysis of kinetic data highlights that T48S, L51A, and L59A variations cause a detectable decrease of the affinity of the domain for Gab2_448–460 of ∼10-fold, affecting both the kon and koff. […] Since L99 residue is part of the binding pocket, this dramatic effect on the binding affinity is expected.
(§5) SH2 domains bind ligands with a phosphorylated tyrosine in their sequence. The N-SH2 domain of PI3K is known to recognize a specific consensus sequences that present a methionine in position +3 in respect to the phosphotyrosine (M457 in Gab2). […]

[2] = target: T2, N-SH2 domain of PI3K, I17V variant (Homo sapiens, UniProt P27986, I338V); assay: Stopped-flow binding kinetics, N-SH2 I17V
T2 construct: made in house
T2 sequence (P27986 333-428 I338V): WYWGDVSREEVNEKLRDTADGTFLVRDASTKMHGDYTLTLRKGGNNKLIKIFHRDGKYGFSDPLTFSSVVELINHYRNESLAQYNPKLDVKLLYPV
Experimental: as §1, §2, §3, §4, §5

[3] = target: T3, N-SH2 domain of PI3K, V22A variant (Homo sapiens, UniProt P27986, V343A); assay: Stopped-flow binding kinetics, N-SH2 V22A
T3 construct: made in house
T3 sequence (P27986 333-428 V343A): as the sequence (P27986 333-428 I338V) above, with V6I, V11A counted along it
Experimental: as §1, §2, §3, §4, §5

[4] = target: T4, N-SH2 domain of PI3K, T29S variant (Homo sapiens, UniProt P27986, T350S); assay: Stopped-flow binding kinetics, N-SH2 T29S
T4 construct: made in house
T4 sequence (P27986 333-428 T350S): as the sequence (P27986 333-428 I338V) above, with V6I, T18S counted along it
Experimental: as §1, §2, §3, §4, §5

[5] = target: T5, N-SH2 domain of PI3K, A30G variant (Homo sapiens, UniProt P27986, A351G); assay: Stopped-flow binding kinetics, N-SH2 A30G
T5 construct: made in house
T5 sequence (P27986 333-428 A351G): as the sequence (P27986 333-428 I338V) above, with V6I, A19G counted along it
Experimental: as §1, §2, §3, §4, §5

[6] = target: T6, N-SH2 domain of PI3K, T33S variant (Homo sapiens, UniProt P27986, T354S); assay: Stopped-flow binding kinetics, N-SH2 T33S
T6 construct: made in house
T6 sequence (P27986 333-428 T354S): as the sequence (P27986 333-428 I338V) above, with V6I, T22S counted along it
Experimental: as §1, §2, §3, §4, §5

[7] = target: T7, N-SH2 domain of PI3K, T50S variant (Homo sapiens, UniProt P27986, T371S); assay: Stopped-flow binding kinetics, N-SH2 T50S
T7 construct: made in house
T7 sequence (P27986 333-428 T371S): as the sequence (P27986 333-428 I338V) above, with V6I, T39S counted along it
Experimental: as §1, §2, §3, §4, §5

[8] = target: T8, N-SH2 domain of PI3K, L51A variant (Homo sapiens, UniProt P27986, L372A); assay: Stopped-flow binding kinetics, N-SH2 L51A
T8 construct: made in house
T8 sequence (P27986 333-428 L372A): as the sequence (P27986 333-428 I338V) above, with V6I, L40A counted along it
Experimental: as §1, §2, §3, §4, §5

[9] = target: T9, N-SH2 domain of PI3K, I60V variant (Homo sapiens, UniProt P27986, I381V); assay: Stopped-flow binding kinetics, N-SH2 I60V
T9 construct: made in house
T9 sequence (P27986 333-428 I381V): as the sequence (P27986 333-428 I338V) above, with V6I, I49V counted along it
Experimental: as §1, §2, §3, §4, §5

[10] = target: T10, N-SH2 domain of PI3K, I62V variant (Homo sapiens, UniProt P27986, I383V); assay: Stopped-flow binding kinetics, N-SH2 I62V
T10 construct: made in house
T10 sequence (P27986 333-428 I383V): as the sequence (P27986 333-428 I338V) above, with V6I, I51V counted along it
Experimental: as §1, §2, §3, §4, §5

[11] = target: T11, N-SH2 domain of PI3K, P74A variant (Homo sapiens, UniProt P27986, P395A); assay: Stopped-flow binding kinetics, N-SH2 P74A
T11 construct: made in house
T11 sequence (P27986 333-428 P395A): as the sequence (P27986 333-428 I338V) above, with V6I, P63A counted along it
Experimental: as §1, §2, §3, §4, §5

[12] = target: T12, N-SH2 domain of PI3K, L75A variant (Homo sapiens, UniProt P27986, L396A); assay: Stopped-flow binding kinetics, N-SH2 L75A
T12 construct: made in house
T12 sequence (P27986 333-428 L396A): as the sequence (P27986 333-428 I338V) above, with V6I, L64A counted along it
Experimental: as §1, §2, §3, §4, §5

[13] = target: T13, N-SH2 domain of PI3K, T76S variant (Homo sapiens, UniProt P27986, T397S); assay: Stopped-flow binding kinetics, N-SH2 T76S
T13 construct: made in house
T13 sequence (P27986 333-428 T397S): as the sequence (P27986 333-428 I338V) above, with V6I, T65S counted along it
Experimental: as §1, §2, §3, §4, §5

[14] = target: T14, N-SH2 domain of PI3K, V80A variant (Homo sapiens, UniProt P27986, V401A); assay: Stopped-flow binding kinetics, N-SH2 V80A
T14 construct: made in house
T14 sequence (P27986 333-428 V401A): as the sequence (P27986 333-428 I338V) above, with V6I, V69A counted along it
Experimental: as §1, §2, §3, §4, §5

[15] = target: T15, N-SH2 domain of PI3K, V81A variant (Homo sapiens, UniProt P27986, V402A); assay: Stopped-flow binding kinetics, N-SH2 V81A
T15 construct: made in house
T15 sequence (P27986 333-428 V402A): as the sequence (P27986 333-428 I338V) above, with V6I, V70A counted along it
Experimental: as §1, §2, §3, §4, §5

[16] = target: T16, N-SH2 domain of PI3K, V101A variant (Homo sapiens, UniProt P27986, V422A); assay: Stopped-flow binding kinetics, N-SH2 V101A
T16 construct: made in house
T16 sequence (P27986 333-428 V422A): as the sequence (P27986 333-428 I338V) above, with V6I, V90A counted along it
Experimental: as §1, §2, §3, §4, §5

[17] = target: T17, N-SH2 domain of PI3K, L104A variant (Homo sapiens, UniProt P27986, L425A); assay: Stopped-flow binding kinetics, N-SH2 L104A
T17 construct: made in house
T17 sequence (P27986 333-428 L425A): as the sequence (P27986 333-428 I338V) above, with V6I, L93A counted along it
Experimental: as §1, §2, §3, §4, §5

[18] = displacement experiment, pH 7.4, 300 mM NaCl
[19] = stopped-flow FRET, 1 μM dansylated peptide, 50 mM Hepes pH 7.4, 300 mM NaCl
[20] = stopped-flow kinetics, pH 7.4, 300 mM NaCl

T1 sequence (P27986 333-428 limits assumed): as the sequence (P27986 333-428 I338V) above, with V6I counted along it

SMILES: CC(C)[C@H](NC(=O)[C@H](Cc1ccc(OP(=O)(O)O)cc1)NC(=O)[C@H](CC(N)=O)NC(=O)[C@H](CC(=O)O)NC(=O)[C@H](CCC(=O)O)NC(=O)[C@H](CO)NC(=O)[C@H](CC(N)=O)NC(=O)[C@@H](N)[C@@H](C)O)C(=O)N1CCC[C@H]1C(=O)N[C@@H](C)C(=O)N[C@@H](CC(N)=O)C(=O)N1CCC[C@H]1C(=O)NCC(=O)O [Gab2_448–460 M457A] (HELM PEPTIDE1{T.N.S.E.D.N.[O=C([C@H](Cc1ccc(OP(=O)(O)O)cc1)N[*:1])[*:2]].V.P.A.N.P.G}$$$$V2.0)
- koff ([1]; displacement of 1 μM complex by 50 μM non-dansylated Gab2_448–460, 50 mM Hepes pH 7.4, 300 mM NaCl): 80 ± 4 s⁻¹
- Kd ([1]; from stopped-flow kinetics, pH 7.4, 300 mM NaCl): 3.7 ± 0.4 µM
- kon ([1]; stopped-flow FRET, 1 μM dansylated peptide vs excess N-SH2, 50 mM Hepes pH 7.4, 300 mM NaCl, slope of kobs): 2.15e+07 ± 2.4e+06 M⁻¹ s⁻¹
- koff [2, 18]: 90 ± 5 s⁻¹
- kon [2, 19]: 2.2e+07 ± 2.3e+06 M⁻¹ s⁻¹
- Kd [2, 20]: 4.3 ± 0.5 µM
- koff [3, 18]: 170 ± 9 s⁻¹
- kon [3, 19]: 1.77e+07 ± 2.6e+06 M⁻¹ s⁻¹
- Kd [3, 20]: 9.7 ± 1.5 µM
- koff [4, 18]: 80 ± 4 s⁻¹
- kon [4, 19]: 1.97e+07 ± 2.7e+06 M⁻¹ s⁻¹
- Kd [4, 20]: 4 ± 0.6 µM
- koff [5, 18]: 90 ± 4 s⁻¹
- kon [5, 19]: 1.71e+07 ± 2.2e+06 M⁻¹ s⁻¹
- Kd [5, 20]: 5.1 ± 0.7 µM
- koff [6, 18]: 80 ± 4 s⁻¹
- kon [6, 19]: 2.06e+07 ± 2.9e+06 M⁻¹ s⁻¹
- Kd [6, 20]: 3.8 ± 0.6 µM
- koff [7, 18]: 140 ± 7 s⁻¹
- kon [7, 19]: 2.02e+07 ± 2e+06 M⁻¹ s⁻¹
- Kd [7, 20]: 6.8 ± 0.8 µM
- koff [8, 18]: 160 ± 8 s⁻¹
- kon [8, 19]: 2.12e+07 ± 3.3e+06 M⁻¹ s⁻¹
- Kd [8, 20]: 7.6 ± 1.2 µM
- koff [9, 18]: 80 ± 4 s⁻¹
- kon [9, 19]: 1.52e+07 ± 1.5e+06 M⁻¹ s⁻¹
- Kd [9, 20]: 5 ± 0.6 µM
- koff [10, 18]: 120 ± 6 s⁻¹
- kon [10, 19]: 1.84e+07 ± 1.5e+06 M⁻¹ s⁻¹
- Kd [10, 20]: 6.7 ± 0.6 µM
- koff [11, 18]: 60 ± 3 s⁻¹
- kon [11, 19]: 2.25e+07 ± 1.9e+06 M⁻¹ s⁻¹
- Kd [11, 20]: 2.6 ± 0.3 µM
- koff [12, 18]: 110 ± 5 s⁻¹
- kon [12, 19]: 1.88e+07 ± 3.2e+06 M⁻¹ s⁻¹
- Kd [12, 20]: 5.7 ± 1 µM
- koff [13, 18]: 100 ± 5 s⁻¹
- kon [13, 19]: 1.96e+07 ± 2.6e+06 M⁻¹ s⁻¹
- Kd [13, 20]: 5 ± 0.7 µM
- koff [14, 18]: 130 ± 6 s⁻¹
- kon [14, 19]: 2.23e+07 ± 5.4e+06 M⁻¹ s⁻¹
- Kd [14, 20]: 5.6 ± 1.4 µM
- koff [15, 18]: 90 ± 5 s⁻¹
- kon [15, 19]: 2.05e+07 ± 3.8e+06 M⁻¹ s⁻¹
- Kd [15, 20]: 4.5 ± 0.9 µM
- koff [16, 18]: 170 ± 9 s⁻¹
- kon [16, 19]: 1.42e+07 ± 1.7e+06 M⁻¹ s⁻¹
- Kd [16, 20]: 12 ± 1 µM
- koff [17, 18]: 110 ± 6 s⁻¹
- kon [17, 19]: 2.21e+07 ± 1.4e+06 M⁻¹ s⁻¹
- Kd [17, 20]: 5.2 ± 0.4 µM
